Results published in patent US6737383B1, “Herbicidal oxadiazolidines” (priority 1999, dated 2004).

What was measured:
[1] = test system: bamyardgrass; experiment: Test B flood test barnyardgrass; format: in vivo, Echinochloa crus-galli
How it was run: (§1)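 Plants were grown to the 2-leaf stage before treatment with test chemical, then held in a greenhouse for twelve to sixteen days. Injury was visually rated against untreated controls on a 0–10 scale, where 0 is no effect and 10 is complete control.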

[2] = test system: surinam grass; experiment: Test B pre/postemergence surinam grass; format: in vivo, Brachiaria decumbens; conditions: for B. signalgrass plant response rating: scale of 0 to 10 where 0 is no effect and 10 is complete control
How it was run: (§2)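 Test chemicals in a non-phytotoxic solvent mixture with surfactant were sprayed preemergence onto planted seeds and postemergence onto plants 2 to 18 cm tall (1- to 4-leaf stage). After twelve to sixteen days in a greenhouse, injury was visually rated against untreated controls from 0 (no effect) to 10 (complete control).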

[3] = test system: blackgrass; experiment: Test B pre/postemergence blackgrass; format: in vivo, Alopecurus myosuroides; conditions: for Blackgrass plant response rating: scale of 0 to 10 where 0 is no effect and 10 is complete control
How it was run: as §2

[4] = test system: rice; experiment: Test B flood test rice; format: in vivo, Oryza sativa
How it was run: as §1

[5] = test system: velvetleaf; experiment: Test B pre/postemergence velvetleaf; format: in vivo, Abutilon theophrasti; conditions: for Velvetleaf plant response rating: scale of 0 to 10 where 0 is no effect and 10 is complete control
How it was run: as §2

[6] = test system: wild oat; experiment: Test B pre/postemergence wild oat; format: in vivo, Avena fatua; conditions: for Wild oats plant response rating: scale of 0 to 10 where 0 is no effect and 10 is complete control
How it was run: as §2

[7] = test system: cocklebur; experiment: Test B pre/postemergence cocklebur; format: in vivo, Xanthium strumarium; conditions: for Cocklebur plant response rating: scale of 0 to 10 where 0 is no effect and 10 is complete control
How it was run: as §2

[8] = test system: pigweed; experiment: Test B pre/postemergence pigweed; format: in vivo, Amaranthus retroflexus; conditions: for Redroot pigweed plant response rating: scale of 0 to 10 where 0 is no effect and 10 is complete control
How it was run: as §2

[9] = test system: sugar beet; experiment: Test B pre/postemergence sugar beet; format: in vivo, Beta vulgaris; conditions: for Sugarbeets plant response rating: scale of 0 to 10 where 0 is no effect and 10 is complete control
How it was run: as §2

[10] = test system: purple nutsedge; experiment: Test B pre/postemergence purple nutsedge; format: in vivo, Cyperus rotundus; conditions: for Nutsedge plant response rating: scale of 0 to 10 where 0 is no effect and 10 is complete control
How it was run: as §2

[11] = test system: corn; experiment: Test B pre/postemergence corn; format: in vivo, Zea mays; conditions: for Corn plant response rating: scale of 0 to 10 where 0 is no effect and 10 is complete control
How it was run: as §2

[12] = test system: soybean; experiment: Test B pre/postemergence soybean; format: in vivo, Glycine max; conditions: for Soybean plant response rating: scale of 0 to 10 where 0 is no effect and 10 is complete control
How it was run: as §2

[13] = test system: smallflower flatsedge; experiment: Test B flood test smallflower flatsedge; format: in vivo, Cyperus difformis
How it was run: as §1

[14] = test system: giant foxtail; experiment: Test B pre/postemergence giant foxtail; format: in vivo, Setaria faberii; conditions: for Giant foxtail plant response rating: scale of 0 to 10 where 0 is no effect and 10 is complete control
How it was run: as §2

[15] = test system: crabgrass; experiment: Test B pre/postemergence crabgrass; format: in vivo, Digitaria sanguinalis; conditions: for Crabgrass plant response rating: scale of 0 to 10 where 0 is no effect and 10 is complete control
How it was run: as §2

[16] = Rate 62 g/ha, flood test species, Pre-emergence, visual evaluation after twelve to sixteen days
[17] = Rate 125 g/ha, under heading Pre-emergence, flood test species, visual evaluation after twelve to sixteen days
[18] = Rate 250 g/ha, Pre-emergence, flood-test species, scale 0 to 10, 0 is no effect, 10 is complete control
[19] = Rate 500 g/ha, Pre-emergence, flood test species, scale 0 to 10 (0 no effect, 10 complete control)
[20] = Postemergence, Rate 125 g/ha, scale 0 to 10, 0 is no effect, 10 is complete control
[21] = Postemergence, Rate 250 g/ha, scale 0 to 10, 0 is no effect, 10 is complete control
[22] = Preemergence, Rate 62 g/ha, scale 0 to 10 (0 no effect, 10 complete control)
[23] = Rate 500 g/ha, Postemergence, scale 0 to 10, 0 no effect, 10 complete control

SMILES: Cc1nnsc1Cn1c(=O)on(C(=O)N(c2ccc(F)cc2)C(C)C)c1=O [Compound 380]
- Plant response rating, Barnyardgrass (0 to 10 scale, 0 is no effect, 10 is complete control) [1, 16]: 0
- Barnyardgrass plant response rating (0 to 10 scale, 0 is no effect, 10 is complete control) [1, 17]: 0
- Barnyardgrass plant response rating [1, 18]: 0
- Barnyardgrass plant response rating [1, 19]: 0
- Plant response rating, B. signalgrass [2, 20]: 0
- Plant response rating, B. signalgrass [2, 21]: 0
- Plant response rating, B. signalgrass [2, 22]: 0
- B. signalgrass plant response rating (0 to 10 scale, 0 is no effect, 10 is complete control) ([2]; Preemergence, Rate 125 g/ha): 0
- B. signalgrass plant response rating ([2]; Preemergence, Rate 250 g/ha): 0
- B. signalgrass plant response rating ([2]; Preemergence, Rate 500 g/ha): 0
- B. signalgrass plant response rating ([2]; Rate 62 g/ha, Postemergence): 0
- Plant response rating, B. signalgrass [2, 23]: 0
- Plant response rating, Blackgrass [3, 20]: 0
- Plant response rating, Blackgrass [3, 21]: 0
- Plant response rating, Blackgrass [3, 22]: 0
- Blackgrass plant response rating (0 to 10 scale) ([3]; Preemergence, Rate 125 g/ha): 0
- Blackgrass plant response rating ([3]; Preemergence, Rate 250 g/ha): 0
- Blackgrass plant response rating ([3]; Preemergence, Rate 500 g/ha): 2
- Blackgrass plant response rating ([3]; Rate 62 g/ha, Postemergence): 0
- Plant response rating, Blackgrass [3, 23]: 0
- Plant response rating, Rice (0 to 10 scale, 0 is no effect, 10 is complete control) [4, 16]: 0
- Rice plant response rating (0 to 10 scale, 0 is no effect, 10 is complete control) [4, 17]: 0
- Rice plant response rating [4, 18]: 0
- Rice plant response rating [4, 19]: 0
- Plant response rating, Velvetleaf [5, 20]: 0
- Plant response rating, Velvetleaf [5, 21]: 0
- Plant response rating, Velvetleaf [5, 22]: 0
- Velvetleaf plant response rating (0 to 10 scale) ([5]; Preemergence, Rate 125 g/ha): 0
- Velvetleaf plant response rating ([5]; Preemergence, Rate 250 g/ha): 0
- Velvetleaf plant response rating ([5]; Preemergence, Rate 500 g/ha): 0
- Velvetleaf plant response rating ([5]; Rate 62 g/ha, Postemergence): 0
- Plant response rating, Velvetleaf [5, 23]: 3
- Plant response rating, Wild oats [6, 20]: 0
- Plant response rating, Wild oats [6, 21]: 0
- Plant response rating, Wild oats [6, 22]: 0
- Wild oats plant response rating (0 to 10 scale) ([6]; Preemergence, Rate 125 g/ha): 0
- Wild oats plant response rating ([6]; Preemergence, Rate 250 g/ha): 0
- Wild oats plant response rating ([6]; Preemergence, Rate 500 g/ha): 4
- Wild oats plant response rating ([6]; Rate 62 g/ha, Postemergence): 0
- Plant response rating, Wild oats [6, 23]: 0
- Plant response rating, Cocklebur [7, 20]: 0
- Plant response rating, Cocklebur [7, 21]: 0
- Plant response rating, Cocklebur [7, 22]: 0
- Cocklebur plant response rating (0 to 10 scale) ([7]; Preemergence, Rate 125 g/ha): 0
- Cocklebur plant response rating ([7]; Preemergence, Rate 250 g/ha): 0
- Cocklebur plant response rating ([7]; Rate 62 g/ha, Postemergence): 0
- Plant response rating, Cocklebur [7, 23]: 6
- Plant response rating, Redroot pigweed [8, 20]: 0
- Plant response rating, Redroot pigweed [8, 21]: 0
- Plant response rating, Redroot pigweed [8, 22]: 0
- Redroot pigweed plant response rating (0 to 10 scale) ([8]; Preemergence, Rate 125 g/ha): 3
- Redroot pigweed plant response rating ([8]; Preemergence, Rate 250 g/ha): 3
- Redroot pigweed plant response rating ([8]; Preemergence, Rate 500 g/ha): 6
- Redroot pigweed plant response rating ([8]; Rate 62 g/ha, Postemergence): 0
- Plant response rating, Redroot pigweed [8, 23]: 5
- Plant response rating, Sugarbeets [9, 20]: 0
- Plant response rating, Sugarbeets [9, 21]: 0
- Plant response rating, Sugarbeets [9, 22]: 0
- Sugarbeets plant response rating (0 to 10 scale) ([9]; Preemergence, Rate 125 g/ha): 0
- Sugarbeets plant response rating ([9]; Preemergence, Rate 250 g/ha): 0
- Sugarbeets plant response rating ([9]; Preemergence, Rate 500 g/ha): 0
- Sugarbeets plant response rating ([9]; Rate 62 g/ha, Postemergence): 0
- Plant response rating, Sugarbeets [9, 23]: 0
- Plant response rating, Nutsedge [10, 20]: 0
- Plant response rating, Nutsedge [10, 21]: 0
- Plant response rating, Nutsedge [10, 22]: 0
- Nutsedge plant response rating (0 to 10 scale) ([10]; Preemergence, Rate 125 g/ha): 0
- Nutsedge plant response rating ([10]; Preemergence, Rate 250 g/ha): 0
- Nutsedge plant response rating ([10]; Preemergence, Rate 500 g/ha): 0
- Nutsedge plant response rating ([10]; Rate 62 g/ha, Postemergence): 0
- Plant response rating, Nutsedge [10, 23]: 0
- Plant response rating, Corn [11, 20]: 0
- Plant response rating, Corn [11, 21]: 0
- Plant response rating, Corn [11, 22]: 0
- Corn plant response rating (0 to 10 scale) ([11]; Preemergence, Rate 125 g/ha): 0
- Corn plant response rating ([11]; Preemergence, Rate 250 g/ha): 0
- Corn plant response rating ([11]; Preemergence, Rate 500 g/ha): 0
- Corn plant response rating ([11]; Rate 62 g/ha, Postemergence): 0
- Plant response rating, Corn [11, 23]: 0
- Plant response rating, Soybean [12, 20]: 1
- Plant response rating, Soybean [12, 21]: 1
- Plant response rating, Soybean [12, 22]: 0
- Soybean plant response rating (0 to 10 scale) ([12]; Preemergence, Rate 125 g/ha): 0
- Soybean plant response rating ([12]; Preemergence, Rate 250 g/ha): 0
- Soybean plant response rating ([12]; Preemergence, Rate 500 g/ha): 0
- Soybean plant response rating ([12]; Rate 62 g/ha, Postemergence): 0
- Plant response rating, Soybean [12, 23]: 1
- Plant response rating, S. Flatsedge (0 to 10 scale, 0 is no effect, 10 is complete control) [13, 16]: 0
- S. Flatsedge plant response rating (0 to 10 scale, 0 is no effect, 10 is complete control) [13, 17]: 0
- S. Flatsedge plant response rating [13, 18]: 0
- S. Flatsedge plant response rating [13, 19]: 0
- Plant response rating, Giant foxtail [14, 20]: 2
- Plant response rating, Giant foxtail [14, 21]: 9
- Plant response rating, Giant foxtail [14, 22]: 2
- Giant foxtail plant response rating (0 to 10 scale) ([14]; Preemergence, Rate 125 g/ha): 8
- Giant foxtail plant response rating ([14]; Preemergence, Rate 250 g/ha): 9
- Giant foxtail plant response rating ([14]; Preemergence, Rate 500 g/ha): 10
- Giant foxtail plant response rating ([14]; Rate 62 g/ha, Postemergence): 1
- Plant response rating, Giant foxtail [14, 23]: 9
- Plant response rating, Crabgrass [15, 20]: 1
- Plant response rating, Crabgrass [15, 21]: 2
- Plant response rating, Crabgrass [15, 22]: 1
- Crabgrass plant response rating (0 to 10 scale) ([15]; Preemergence, Rate 125 g/ha): 7
- Crabgrass plant response rating ([15]; Preemergence, Rate 250 g/ha): 7
- Crabgrass plant response rating ([15]; Preemergence, Rate 500 g/ha): 9
- Crabgrass plant response rating ([15]; Rate 62 g/ha, Postemergence): 0
- Plant response rating, Crabgrass [15, 23]: 7
